Here are results for four compounds from BindingDB's records for doi:10.1016/j.bmcl.2009.03.150 (Gsk, 2009).

Common to all, as to experiment: Enzyme Inhibition Assay
In one experiment the target is Cathepsin D (Homo sapiens, UniProt P07339).
The target in another experiment is Beta-secretase 1 (Homo sapiens, UniProt P56817). The following applies: pH 4.5; 22 °C.
For a further experiment, the target named is T1, Beta-secretase 2 (Homo sapiens, UniProt Q9Y5Z0).
T1 sequence (Q9Y5Z0 whole entry): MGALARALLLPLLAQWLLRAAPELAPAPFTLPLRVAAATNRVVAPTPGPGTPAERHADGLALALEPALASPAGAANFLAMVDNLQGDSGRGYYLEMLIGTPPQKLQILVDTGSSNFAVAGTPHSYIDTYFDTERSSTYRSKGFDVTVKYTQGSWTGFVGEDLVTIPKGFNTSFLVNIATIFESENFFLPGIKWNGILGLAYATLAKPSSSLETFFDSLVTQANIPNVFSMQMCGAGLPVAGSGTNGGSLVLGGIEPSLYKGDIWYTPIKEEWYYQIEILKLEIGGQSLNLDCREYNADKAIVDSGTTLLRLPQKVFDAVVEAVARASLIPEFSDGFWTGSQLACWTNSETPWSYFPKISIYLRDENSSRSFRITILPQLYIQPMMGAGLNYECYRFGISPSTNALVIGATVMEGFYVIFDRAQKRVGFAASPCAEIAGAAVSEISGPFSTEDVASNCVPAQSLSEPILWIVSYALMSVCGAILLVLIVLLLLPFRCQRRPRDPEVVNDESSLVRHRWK

Sequence of Beta-secretase 1 (P56817 whole entry): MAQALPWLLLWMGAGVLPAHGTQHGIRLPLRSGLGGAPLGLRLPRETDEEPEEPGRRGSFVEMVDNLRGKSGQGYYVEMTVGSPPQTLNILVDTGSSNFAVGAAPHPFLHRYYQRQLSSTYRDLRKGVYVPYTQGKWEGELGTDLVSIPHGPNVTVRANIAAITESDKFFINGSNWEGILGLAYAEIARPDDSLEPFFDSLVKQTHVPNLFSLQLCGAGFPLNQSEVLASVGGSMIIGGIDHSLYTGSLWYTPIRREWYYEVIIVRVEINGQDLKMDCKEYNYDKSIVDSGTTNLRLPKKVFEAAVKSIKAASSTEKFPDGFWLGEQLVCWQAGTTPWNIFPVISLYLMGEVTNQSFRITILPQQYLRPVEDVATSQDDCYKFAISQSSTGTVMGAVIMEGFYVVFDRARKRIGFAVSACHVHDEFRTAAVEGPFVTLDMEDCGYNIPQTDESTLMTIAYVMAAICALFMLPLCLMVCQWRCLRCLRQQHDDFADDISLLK
Sequence of Cathepsin D (P07339 65-162 limits assumed): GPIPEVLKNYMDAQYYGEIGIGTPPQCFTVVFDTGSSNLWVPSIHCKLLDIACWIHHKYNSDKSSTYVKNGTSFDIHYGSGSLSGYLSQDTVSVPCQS
Sequence of Cathepsin D (P07339 169-412 limits assumed): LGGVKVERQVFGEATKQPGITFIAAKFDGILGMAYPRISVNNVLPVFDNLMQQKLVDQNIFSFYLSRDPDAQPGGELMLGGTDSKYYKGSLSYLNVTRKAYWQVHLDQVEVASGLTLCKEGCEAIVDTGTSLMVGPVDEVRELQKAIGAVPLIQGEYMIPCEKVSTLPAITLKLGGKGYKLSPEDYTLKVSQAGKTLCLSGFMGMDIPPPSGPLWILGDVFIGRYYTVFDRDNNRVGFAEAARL

For `CCN1CCN2CCS(=O)(=O)N(C)C3C=C(C(=O)N[C@@H](Cc4ccccc4)[C@H](O)CNCc4cccc(C(F)(F)F)c4)C=C1C32` (some centres not stated) [7,6,6 tricyclic sulfonamide, 10], the IC50 against Cathepsin D stood at 2240 nM; on Beta-secretase 1, 26 nM; at Beta-secretase 2, 3800 nM.

On to `CCN1CCN2CCS(=O)(=O)N(C)C3C=C(C(=O)N[C@@H](Cc4ccccc4)[C@H](O)CNC4CC4)C=C1C32` (some centres not stated) [7,6,6 tricyclic sulfonamide, 19], for which the IC50 is 26300 nM against Cathepsin D, 550 nM on Beta-secretase 1 and 16200 nM against Beta-secretase 2.

With `CCc1cn2c3c(cc(C(=O)N[C@@H](Cc4ccccc4)[C@H](O)CNCc4cccc(OC)c4)cc13)N(C)S(=O)(=O)CCC2` [8,6,5 tricyclic sulfonamide, 32], the IC50 on Cathepsin D amounted to 1570 nM; against Beta-secretase 1, 28 nM; at Beta-secretase 2 it was 1860 nM.

As for `CCc1cn2c3c(cc(C(=O)N[C@@H](Cc4ccccc4)[C@H](O)CNC4CC4)cc13)N(C)S(=O)(=O)CCC2` [8,6,5 tricyclic sulfonamide, 33], the results for the IC50 at Cathepsin D, against Beta-secretase 1 and against Beta-secretase 2 were 2900 nM, 490 nM and 5460 nM, respectively.
